Our source for the IC50 values is ChEMBL document CHEMBL6109048, “Innovative design and potential applications of covalent strategy in drug discovery” (Eur J Med Chem, 2025).

Molecules are shown by their SMILES.

The target of experiment [1] is Cyclin-dependent kinase 3 (Homo sapiens, UniProt Q00526). Put plainly: Inhibition of recombinant CDK3 (unknown origin).
Experiment [2] deals with T1, Cathepsin G (Homo sapiens, UniProt P08311).
T1 sequence (P08311 whole entry): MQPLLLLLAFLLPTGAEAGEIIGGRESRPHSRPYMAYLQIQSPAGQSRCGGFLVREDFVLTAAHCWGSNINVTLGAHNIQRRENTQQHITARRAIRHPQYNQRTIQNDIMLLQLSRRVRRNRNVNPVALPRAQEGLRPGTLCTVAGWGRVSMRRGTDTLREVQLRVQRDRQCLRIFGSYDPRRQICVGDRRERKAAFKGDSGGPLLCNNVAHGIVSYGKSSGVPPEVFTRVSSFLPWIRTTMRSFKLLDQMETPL
Put plainly: Inhibition of human Cathepsin G.

The target in experiment [3] is T2, Tyrosine-protein kinase JAK3 (Homo sapiens, UniProt P52333).
T2 sequence (P52333 whole entry): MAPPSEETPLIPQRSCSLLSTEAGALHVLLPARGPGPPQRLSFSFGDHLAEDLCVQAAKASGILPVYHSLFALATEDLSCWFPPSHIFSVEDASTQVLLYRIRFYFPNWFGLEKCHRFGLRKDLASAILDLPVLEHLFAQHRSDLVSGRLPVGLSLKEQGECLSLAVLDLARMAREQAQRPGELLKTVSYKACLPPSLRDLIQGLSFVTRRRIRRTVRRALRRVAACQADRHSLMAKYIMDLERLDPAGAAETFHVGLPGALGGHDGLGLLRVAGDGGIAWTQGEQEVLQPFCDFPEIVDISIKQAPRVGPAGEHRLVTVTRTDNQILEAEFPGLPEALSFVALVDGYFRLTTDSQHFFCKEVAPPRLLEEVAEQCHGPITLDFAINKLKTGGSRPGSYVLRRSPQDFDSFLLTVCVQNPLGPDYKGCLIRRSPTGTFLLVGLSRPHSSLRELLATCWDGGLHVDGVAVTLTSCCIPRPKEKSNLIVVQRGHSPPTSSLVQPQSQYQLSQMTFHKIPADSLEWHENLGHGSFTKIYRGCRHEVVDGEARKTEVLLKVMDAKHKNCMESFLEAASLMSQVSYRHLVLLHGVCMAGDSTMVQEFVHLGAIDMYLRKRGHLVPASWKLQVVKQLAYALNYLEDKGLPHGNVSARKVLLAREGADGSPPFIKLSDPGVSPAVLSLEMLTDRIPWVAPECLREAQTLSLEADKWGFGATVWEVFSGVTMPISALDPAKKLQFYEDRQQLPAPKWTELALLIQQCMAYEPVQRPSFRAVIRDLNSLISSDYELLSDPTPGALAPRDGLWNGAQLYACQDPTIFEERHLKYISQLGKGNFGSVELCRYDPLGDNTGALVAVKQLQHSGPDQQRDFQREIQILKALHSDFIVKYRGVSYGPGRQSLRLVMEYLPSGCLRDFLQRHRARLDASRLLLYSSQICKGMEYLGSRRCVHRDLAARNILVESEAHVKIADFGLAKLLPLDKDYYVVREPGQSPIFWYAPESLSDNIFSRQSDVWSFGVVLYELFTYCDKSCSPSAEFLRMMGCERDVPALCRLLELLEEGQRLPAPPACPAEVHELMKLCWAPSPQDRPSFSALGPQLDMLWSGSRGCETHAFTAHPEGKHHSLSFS
Put plainly: Inhibition of JAK3 (unknown origin).

Experiment [4] deals with Epidermal growth factor receptor (Homo sapiens, UniProt P00533). Put plainly: Inhibition of EGFR (unknown origin) by ADP-Glo kinase assay.
Sequence of Epidermal growth factor receptor (P00533 whole entry, the tested form may be a part): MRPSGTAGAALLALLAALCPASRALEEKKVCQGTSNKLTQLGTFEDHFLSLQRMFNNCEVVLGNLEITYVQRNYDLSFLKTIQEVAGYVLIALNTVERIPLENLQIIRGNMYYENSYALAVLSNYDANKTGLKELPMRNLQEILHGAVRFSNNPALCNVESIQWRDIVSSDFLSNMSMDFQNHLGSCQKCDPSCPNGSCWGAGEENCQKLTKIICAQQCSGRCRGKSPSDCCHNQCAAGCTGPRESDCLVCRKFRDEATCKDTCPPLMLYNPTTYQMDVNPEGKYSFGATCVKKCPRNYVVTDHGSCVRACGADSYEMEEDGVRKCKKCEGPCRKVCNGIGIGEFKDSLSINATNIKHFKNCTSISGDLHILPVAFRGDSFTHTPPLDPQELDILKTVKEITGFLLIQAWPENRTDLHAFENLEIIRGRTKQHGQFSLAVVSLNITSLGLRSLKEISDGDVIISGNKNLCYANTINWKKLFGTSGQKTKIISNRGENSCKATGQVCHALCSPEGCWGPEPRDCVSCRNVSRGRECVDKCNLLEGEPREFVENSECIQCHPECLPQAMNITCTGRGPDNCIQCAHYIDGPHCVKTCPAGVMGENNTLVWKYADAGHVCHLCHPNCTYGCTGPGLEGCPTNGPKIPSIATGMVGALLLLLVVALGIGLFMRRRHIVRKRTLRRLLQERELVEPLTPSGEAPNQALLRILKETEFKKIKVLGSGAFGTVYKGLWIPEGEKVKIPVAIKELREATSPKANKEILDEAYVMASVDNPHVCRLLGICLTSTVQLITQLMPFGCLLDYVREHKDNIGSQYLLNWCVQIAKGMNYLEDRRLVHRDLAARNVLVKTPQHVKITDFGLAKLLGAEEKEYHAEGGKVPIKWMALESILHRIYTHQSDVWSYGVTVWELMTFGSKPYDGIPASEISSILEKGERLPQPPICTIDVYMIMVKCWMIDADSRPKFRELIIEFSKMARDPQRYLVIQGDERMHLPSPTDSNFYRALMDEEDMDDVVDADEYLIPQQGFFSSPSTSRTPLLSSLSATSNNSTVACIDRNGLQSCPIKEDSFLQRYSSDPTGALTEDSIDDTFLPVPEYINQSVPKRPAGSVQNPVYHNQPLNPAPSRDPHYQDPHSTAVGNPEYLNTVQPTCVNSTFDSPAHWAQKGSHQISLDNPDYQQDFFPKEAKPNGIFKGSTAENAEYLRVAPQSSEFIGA
Experiment [5] has as its target Tyrosine-protein kinase ABL1 (Homo sapiens, UniProt P00519). Put plainly: Inhibition of 6His/SUMO- tagged human ABL1 (229 to 500 residues) extracted from Escherichia coli BL21 (DE3).
In experiment [6] the target is Mast/stem cell growth factor receptor Kit (Homo sapiens, UniProt P10721). Nature of the experiment: Inhibition of c-KIT (unknown origin).
Sequence of Mast/stem cell growth factor receptor Kit (P10721 whole entry): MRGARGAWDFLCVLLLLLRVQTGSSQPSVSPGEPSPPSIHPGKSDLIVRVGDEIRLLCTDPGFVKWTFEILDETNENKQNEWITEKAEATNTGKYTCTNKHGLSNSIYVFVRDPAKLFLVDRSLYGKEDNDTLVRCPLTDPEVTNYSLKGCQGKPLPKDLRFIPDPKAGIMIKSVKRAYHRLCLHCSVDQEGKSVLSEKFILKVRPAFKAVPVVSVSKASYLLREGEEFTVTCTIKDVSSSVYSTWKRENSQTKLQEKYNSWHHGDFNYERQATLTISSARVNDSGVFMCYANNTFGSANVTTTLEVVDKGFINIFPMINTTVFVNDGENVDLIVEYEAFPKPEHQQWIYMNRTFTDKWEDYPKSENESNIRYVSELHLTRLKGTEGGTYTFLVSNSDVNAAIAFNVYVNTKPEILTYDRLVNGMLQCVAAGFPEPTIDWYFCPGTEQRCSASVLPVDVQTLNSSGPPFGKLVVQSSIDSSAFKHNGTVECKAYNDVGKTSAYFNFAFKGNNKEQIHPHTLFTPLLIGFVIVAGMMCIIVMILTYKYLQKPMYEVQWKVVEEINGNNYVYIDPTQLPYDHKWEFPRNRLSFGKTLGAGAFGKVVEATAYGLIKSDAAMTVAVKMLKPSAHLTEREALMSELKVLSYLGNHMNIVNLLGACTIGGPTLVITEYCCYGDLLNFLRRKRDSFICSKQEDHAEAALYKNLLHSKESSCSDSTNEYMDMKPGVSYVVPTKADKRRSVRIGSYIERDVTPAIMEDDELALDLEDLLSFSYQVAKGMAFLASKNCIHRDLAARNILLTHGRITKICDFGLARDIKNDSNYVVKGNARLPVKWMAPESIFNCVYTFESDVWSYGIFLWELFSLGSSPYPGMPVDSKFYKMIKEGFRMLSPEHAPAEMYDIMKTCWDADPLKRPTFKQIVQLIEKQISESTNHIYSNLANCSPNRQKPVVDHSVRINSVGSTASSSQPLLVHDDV
In experiment [7] the target is SRSF protein kinase 1 (Homo sapiens, UniProt Q96SB4). Nature of the experiment: Inhibition of SRPK1 (unknown origin).
Sequence of SRSF protein kinase 1 (Q96SB4 whole entry): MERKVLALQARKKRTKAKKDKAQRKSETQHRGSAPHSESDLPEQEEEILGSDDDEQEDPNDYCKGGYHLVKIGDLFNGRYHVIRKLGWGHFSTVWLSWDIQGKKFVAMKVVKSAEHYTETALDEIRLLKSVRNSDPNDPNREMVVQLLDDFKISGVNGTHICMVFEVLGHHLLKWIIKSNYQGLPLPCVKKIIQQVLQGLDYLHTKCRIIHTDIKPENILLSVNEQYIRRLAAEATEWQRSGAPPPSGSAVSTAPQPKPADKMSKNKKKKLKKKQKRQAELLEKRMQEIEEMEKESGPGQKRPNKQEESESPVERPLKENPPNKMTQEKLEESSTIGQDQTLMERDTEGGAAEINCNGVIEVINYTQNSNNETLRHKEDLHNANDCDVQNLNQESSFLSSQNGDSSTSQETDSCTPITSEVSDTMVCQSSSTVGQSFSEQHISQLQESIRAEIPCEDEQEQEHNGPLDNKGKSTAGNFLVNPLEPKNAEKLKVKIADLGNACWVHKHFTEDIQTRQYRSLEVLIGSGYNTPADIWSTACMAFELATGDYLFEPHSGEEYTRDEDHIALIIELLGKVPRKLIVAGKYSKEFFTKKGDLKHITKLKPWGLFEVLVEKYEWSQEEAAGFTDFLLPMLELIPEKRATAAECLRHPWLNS
Experiment [8] concerns the target T3, Neutrophil elastase (Homo sapiens, UniProt P08246).
T3 sequence (P08246 whole entry): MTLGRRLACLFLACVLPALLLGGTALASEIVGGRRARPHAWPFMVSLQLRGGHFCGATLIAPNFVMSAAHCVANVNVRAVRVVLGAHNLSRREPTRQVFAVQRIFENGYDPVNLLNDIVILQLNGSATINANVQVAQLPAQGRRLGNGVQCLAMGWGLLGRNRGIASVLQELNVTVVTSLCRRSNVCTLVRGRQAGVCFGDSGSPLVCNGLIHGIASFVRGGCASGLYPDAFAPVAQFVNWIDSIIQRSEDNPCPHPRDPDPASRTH
Put plainly: Inhibition of human neutrophil elastase.

Sequence of Cyclin-dependent kinase 3 (Q00526 whole entry): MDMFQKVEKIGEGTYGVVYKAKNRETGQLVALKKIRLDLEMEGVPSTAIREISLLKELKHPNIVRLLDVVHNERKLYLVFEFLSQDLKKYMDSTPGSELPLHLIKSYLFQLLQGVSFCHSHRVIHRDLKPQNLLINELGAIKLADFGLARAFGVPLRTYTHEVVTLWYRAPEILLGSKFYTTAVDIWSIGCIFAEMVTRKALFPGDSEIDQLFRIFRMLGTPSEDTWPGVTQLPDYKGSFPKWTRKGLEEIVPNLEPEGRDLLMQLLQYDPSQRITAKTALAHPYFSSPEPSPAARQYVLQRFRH
Sequence of Tyrosine-protein kinase ABL1 (P00519 whole entry, the tested form may be a part): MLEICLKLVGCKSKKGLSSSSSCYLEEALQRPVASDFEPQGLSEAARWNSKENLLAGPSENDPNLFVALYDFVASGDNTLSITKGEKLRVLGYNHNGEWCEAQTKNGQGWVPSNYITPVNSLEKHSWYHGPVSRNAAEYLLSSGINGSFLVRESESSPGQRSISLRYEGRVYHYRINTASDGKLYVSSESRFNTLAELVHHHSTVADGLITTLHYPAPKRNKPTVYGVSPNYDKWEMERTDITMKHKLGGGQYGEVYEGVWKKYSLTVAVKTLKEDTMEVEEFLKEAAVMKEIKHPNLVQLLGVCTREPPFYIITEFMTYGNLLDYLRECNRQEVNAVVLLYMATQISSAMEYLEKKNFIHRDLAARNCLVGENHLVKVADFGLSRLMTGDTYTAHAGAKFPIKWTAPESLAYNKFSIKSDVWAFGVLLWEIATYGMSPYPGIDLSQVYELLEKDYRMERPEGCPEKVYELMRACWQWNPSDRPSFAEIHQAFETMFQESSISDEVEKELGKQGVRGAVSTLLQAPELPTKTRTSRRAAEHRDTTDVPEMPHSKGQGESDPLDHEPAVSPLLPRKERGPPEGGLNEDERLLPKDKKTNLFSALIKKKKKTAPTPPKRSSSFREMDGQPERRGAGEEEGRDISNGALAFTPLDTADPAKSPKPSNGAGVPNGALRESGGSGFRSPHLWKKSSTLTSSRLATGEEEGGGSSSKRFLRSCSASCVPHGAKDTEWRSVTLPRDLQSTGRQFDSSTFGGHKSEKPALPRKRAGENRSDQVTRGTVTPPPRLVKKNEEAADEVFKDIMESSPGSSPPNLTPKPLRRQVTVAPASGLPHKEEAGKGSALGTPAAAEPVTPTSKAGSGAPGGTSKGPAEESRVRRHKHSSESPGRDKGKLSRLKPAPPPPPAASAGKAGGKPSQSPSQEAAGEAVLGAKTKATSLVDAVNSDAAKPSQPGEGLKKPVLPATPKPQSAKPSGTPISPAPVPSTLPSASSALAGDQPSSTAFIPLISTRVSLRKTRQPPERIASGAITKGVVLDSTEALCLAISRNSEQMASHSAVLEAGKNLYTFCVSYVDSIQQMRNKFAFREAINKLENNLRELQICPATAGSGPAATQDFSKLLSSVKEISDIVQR

Take `CN(C)C/C=C/C(=O)Nc1ccc(C(=O)N2CCCC(Nc3ncc(Cl)c(-c4c[nH]c5ccccc45)n3)C2)cc1` (centres undefined): in experiment [1], the IC50 was found to be 69 nM. In the case of `O=S(=O)(F)Oc1ccccc1S(=O)(=O)F`, the IC50 in experiment [2] was > 200 nM. The compound `CC#CC1Nc2cc(Nc3nccc(C4CN(C)c5ccccc54)n3)ccc2C(C)(C)O1` (centres undefined) returned an IC50 in experiment [3] of 60 nM. Turning to `C#Cc1cc(Nc2ncnc3cc(OCCOC)c(OCCOC)cc23)ccc1C=O`, 48.2 nM corresponded to half-maximal inhibition in experiment [4] (IC50). Compound `C#Cc1cc(OC)c(-c2ccc3nc(NC(=O)NCCO)sc3c2)cc1C=O` came in with an IC50 in experiment [5] of 2.4 nM. `CC#CC1=Nc2cc(NC(=O)Cc3ncc(Oc4ccnc5cc(OC)ccc45)cc3OC)ccc2C(C)(C)O1` registered an IC50 in experiment [6] of 2080 nM. As to `CCc1cc2c(cc1-c1cc[nH]n1)C(C)(C)C1Cc3cc(C#N)ccc3C1C2=O` (centres undefined), the IC50 in experiment [7] was 1.15 nM.

As to `O=S(=O)(F)c1ccccc1S(=O)(=O)F`, the results for the IC50 in experiment [8] and in experiment [2] were 3300 nM and 190 nM, respectively.
